Test results published in article PMC12393591, “Targeting Plasminogen Activator Inhibitor-1 with a Novel Small Molecule Inhibitor Attenuates Lung Fibrosis” (Research Square, 2025).
pIC50: −log10 of the molar value. Where two headings read alike, the source gives them in different places. Blank lines part the entries; values can stand above or below the compound they belong to.

Experiments:
[1] = tested on: idiopathic pulmonary fibrosis; design: method as in PMID 40387033; conditions: patients with IPF, phase 3 clinical trial; cited from earlier work
[2] = Non-GLP single dose PK, oral gavage; assay type: in vivo, CD-1 mice; conditions: mouse plasma, single dose 30 mg/kg oral gavage, n=3, mean ± SD
Protocol: A non-GLP comparative, single dose PK analysis of MDI-2268 versus MDI-2517 was performed by the University of Michigan Pharmacokinetics Core in CD-1 mice. Briefly, MDI-2268 or MDI-2517 were suspended in 0.5% methylcellulose in water and given orally by gavage at 30 mg/kg (10mL/kg) to 3 mice each. Blood was collected by using heparinized calibrated pipettes at 0.5h, 2h, 4h, and 7h and centrifuged immediately at 15,000g for 10 min. The plasma was collected, which was frozen at −80°C for later LC-MS analysis.

[3] = target: recombinant active human PAI-1 (Homo sapiens, UniProt P05121); experiment: PAI-1 inhibitory activity against uPA (fluorogenic uPA substrate); assay type: biochemical; conditions: for pIC50: read-out: IC50 for inhibiting the activity of PAI-1 against uPA
[4] = tested on: lung fibrosis induced by targeted type II alveolar epithelial cell injury; experiment: Targeted AEC2 injury model (diphtheria toxin in DTR mice; hydroxyproline, weight, histology); assay type: in vivo, DTR-expressing mice (C57BL/6 background); conditions: 60 mg/kg twice daily
[5] = tested on: lung fibrosis induced by targeted type II alveolar epithelial cell injury; conditions: model of targeted AEC2 injury; previously shown by the authors; cited from earlier work
[6] = tested on: bleomycin-induced lung fibrosis; experiment: Single-dose bleomycin lung injury model (hydroxyproline, weight, histology); assay type: in vivo, C57BL/6 mice
Protocol: Weight and age matched mice were anesthetized with isoflurane and received an oropharyngeal instillation of bleomycin (2.5 u/kg in 50 μL of sterile PBS) (Sigma Pharmaceuticals). Control mice received 50 μl of PBS alone. Mice were intermittently weighed through day 21. Hydroxyproline content of the lung was measured as previously described. The left lung was inflation-fixed at 25 cm H2O pressure with 10% neutral-buffered formalin, removed en bloc, further fixed in 10% neutral-buffered formalin overnight, and then paraffin embedded. Five-micron sections were stained using hematoxylin and eosin, and picrosirius red methods.

[7] = tested on: bleomycin-induced lung fibrosis; design: method as in PMID 26859294; conditions: mice following bleomycin injury; cited from earlier work
[8] = tested on: TGFβ-expressing adenovirus-induced lung fibrosis; design: method as in PMID 21852684; conditions: started 4 days after fibrosis initiation; cited from earlier work

Sequence of recombinant active human PAI-1 (P05121 24-402): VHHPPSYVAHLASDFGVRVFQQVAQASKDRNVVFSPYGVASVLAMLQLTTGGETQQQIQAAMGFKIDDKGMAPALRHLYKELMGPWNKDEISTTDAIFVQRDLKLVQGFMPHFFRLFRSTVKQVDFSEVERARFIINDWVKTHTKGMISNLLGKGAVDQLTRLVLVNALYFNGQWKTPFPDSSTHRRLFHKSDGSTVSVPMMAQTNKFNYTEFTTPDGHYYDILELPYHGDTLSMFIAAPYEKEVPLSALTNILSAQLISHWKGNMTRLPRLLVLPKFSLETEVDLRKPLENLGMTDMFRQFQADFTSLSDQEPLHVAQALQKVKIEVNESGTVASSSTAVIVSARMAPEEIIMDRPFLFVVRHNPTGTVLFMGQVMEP

SMILES: [O-][S+]1CCc2nc(N3CCC(c4ncc(Cl)cn4)CC3)nc(NC3(CO)CCC3)c21 (stereo not shown) [BI 1015550]
rate of lung function decline [1]: reduced the rate of lung function decline

AUC0-7h obs [2]: 7405 ± 1302 ng·h/mL | pIC50 ([3]; buffer containing 10% human PAI-1-depleted plasma): 4.17 | pIC50 ([3]; buffer with 50 nM purified human vitronectin): 4.12 | pIC50 ([3]; in buffer alone): 3.85 | fold more effective than Tiplaxtinin at inhibiting PAI-1 ([3]; in the presence of VTN): greater than 7 fold
SMILES: NNC(=O)C(=O)NCc1cccc(OC(F)(F)F)c1 [MDI-2268]

SMILES: COC(=O)c1ccc2c(c1)NC(=O)/C2=C(\Nc1ccc(N(C)C(=O)CN2CCN(C)CC2)cc1)c1ccccc1 [Nintedanib]
lung hydroxyproline content day 21 ([4]; 10 days from day 11): statistically significantly reduced | weight loss vs vehicle-treated injured group ([4]; 10 days from day 11): mitigated the severity of the weight loss | histopathologic changes (alveolar wall thickening, picrosirius red staining) ([4]; 10 days from day 11, day 21): significantly attenuated | severity of pulmonary scarring [5]: attenuate the severity of pulmonary scarring | body weight vs vehicle ([6]; 60 mg/kg twice daily from day 11): recovery of body weight | lung collagen content (hydroxyproline) day 21 ([6]; 60 mg/kg twice daily, 10 days from day 11): statistically significantly attenuated | areas of lung consolidation, picrosirius red histopathology ([6]; 60 mg/kg twice daily, 10 days from day 11, day 21): significantly attenuated

SMILES: CC(C)(C)c1ccc2oc(-c3ccc4cc(OCCCCCC(C(=O)[O-])C(=O)[O-])ccc4c3)nc2c1.[Na+].[Na+] [SK-216]
lung fibrosis [7]: modestly attenuate lung fibrosis

SMILES: O=C(COCC(=O)N1CCN(C(c2ccccc2)c2ccccc2)CC1)Nc1ccc(Cl)cc1C(=O)O [TM5275]
lung collagen accumulation [8]: significantly decrease lung collagen accumulation

SMILES: Cc1ccc(=O)n(-c2ccccc2)c1 [pirfenidone]
severity of pulmonary scarring [5]: attenuate the severity of pulmonary scarring
